Laboratory results reported in ChEMBL document CHEMBL3430912, “GSK Tres Cantos Anti-Kinetoplastid Screening (TCAKS) Data”.
pIC50: −log10 of the molar value.

Assays:
[1] = tested on: Leishmania donovani; assay: GSK_TCAKS: pIC50 Leishmania donovani viability assay using fluorescence intensity. Assay plates (1536-well) were prepared by adding 30nL per well of compound. For single shot assay, the final compound concentration was 5uM. […] Briefly, eGFP LdBOB axenic amastigotes were harvested, fixed and counted in a CASY cell counter (Roche-Applied Science). A final concentration of 1.5 * 10^5 cells per well were prepared in amastigote media containing 500 U/mL penicillin/streptomycin (Invitrogen) and 6uL was dispensed to each experimental well using a Multidrop Combi dispenser (Thermo Scientific). 6uL of assay media was dispensed to control columns used as reference for 100% compound response. Following incubation for 72 h at 37C, 5% CO2, 2 uL of resazurin was added to each well at a final concentration of 0.5 mM in phosphate buffered saline (PBS) with IGEPAL (Sigma-Aldrich), 0.05% (v/v).; format: functional, organism-based
[2] = GSK_TCAKS: pIC50 HepG2 human cell line viability assay using luminiscence. […] Seeding density was checked to ensure that new mono-layers were not more than 50% confluent at the time of harvesting. Cell suspension was added to 500 mL of the same medium at a final density of 1.2 * 10^5 cells/mL. This cell suspension was dispensed (25 uL, 3000 cells per well) into 384-well clear-bottom plates using a Multidrop Combi dispenser. Prior to addition of the cell suspension, the screening compounds (250 nL) were pre-dispensed into the plates with an Echo liquid handler. Plates were incubated for 48 h at 37C, 5% CO2. After incubation, plates equilibrated at room temperature for 30 min before proceeding to develop the luminescent signal. The signal developer, CellTiter-Glo Reagent, was allowed to equilibrate at room temperature for 30 min and added to the plates (25uL per well) using a Multidrop Combi dispenser. Plates were left for 10 min at room temperature for stabilization and then read using a ViewLux.; format: toxicity, cell-based
[3] = tested on: Trypanosoma cruzi; assay: (§1) GSK_TCAKS: pIC50 H2C9 Imaging: H9c2 Host Cardiomyocytes. […] Cells were then washed once with PBS before infection. T. cruzi trypomastigotes, collected at days 5 to 8 after infection from LLC-MK2 parasite infected cultures, were allowed to swim out for 4h at 37C from a centrifuged pellet (2,500 rpm/10 min/room temperature). Trypomastigotes were then collected and counted in a CASY Cell Counter. Trypomastigotes, in supplemented DMEM, were added to H9c2 cultures in a multiplicity of infection of 1 and incubated for 18 h. Cells were washed once with PBS before incubation of the infected H9c2 monolayer with trypsin (Life-Technologies) to detach cells from the flask. Cells were counted in a CASY Cell Counter using a 150 um capillary and their density set at 5 * 10^4 cells per mL in supplemented assay DMEM. Infected H9c2 were dispensed into 384-well poly-lysine coated assay plates at 50uL per well using a Multidrop Combi dispenser. After seeding them, the plates were incubated at 37C, 5% CO2 for 72h. Cultures were then fixed and stained by addition of 50 uL of a solution containing 8% formaldehyde and 4 uM DRAQ5 DNA dye (BioStatus, UK) per well. […] Five images were collected per well for reliable statistical analysis. Automated image analysis was performed with a script developed on Acapella High Content Imaging and Analysis Software (PerkinElmer). Output: Number of H9c2 Host Cardiomyocytes nuclei to determine drug-related cytotoxicity.; format: functional, organism-based, Rattus norvegicus; conditions: H9c2, 4 h
[4] = tested on: Leishmania donovani; assay: (§2) GSK_TCAKS: pIC50 Leishmania donovani Imaging: Amastigotes/Macrophages. Assay plates (384-well) were prepared by adding 250nL of compound to each well. For single shot assay, the final compound concentration was 5 uM. […] Automated image analysis was performed with a script developed on Acapella High Content Imaging and Analysis Software (PerkinElmer). Output: Average number of amastigotes per macrophage cell were reported for each well.; format: functional, organism-based, Homo sapiens; conditions: THP-1
[5] = tested on: Trypanosoma cruzi; assay: as §1, with “Trypanosoma cruzi” for “H2C9”, “Amastigotes/Cell.” for “H9c2 Host Cardiomyocytes.”, “number” for “Number”, “amastigotes per cell as infection level measurement.” for “H9c2 Host Cardiomyocytes nuclei to determine drug-related cytotoxicity.”; format: functional, organism-based, Rattus norvegicus; conditions: H9c2, 4 h
[6] = tested on: Trypanosoma brucei brucei; assay: GSK_TCAKS: pIC50 Trypanosoma brucei viability assay using luminiscence. Assay plates (1536-well) were prepared. T. brucei cultures were harvested and counted in a CASY cell counter. A parasite suspension was prepared at a final concentration of 5 * 10^4 cells/mL in complete HMI9 medium and 6uL was dispensed to all wells containing compounds using a Multidrop Combi dispenser. 6uL of HMI9 media with 0.4% DMSO were dispensed to control columns. Plates were incubated for 24 h at 37C, 5% CO2 then tempered for 10 min at room temperature. ATP content was quantified by adding 4 uL of CellTiter-Glo Reagent (Promega) according to the manufacturer's instructions. Luminescence was measured using a ViewLux.; format: functional, organism-based; conditions: Lister 427, CASY
[7] = molecular target: Sterol 14-alpha demethylase (Trypanosoma cruzi (strain CL Brener), UniProt Q7Z1V1); assay: GSK_TCAKS: pIC50 CYP51 from Trypanosoma cruzi.; format: functional
Sequence of Sterol 14-alpha demethylase (Q7Z1V1 whole entry): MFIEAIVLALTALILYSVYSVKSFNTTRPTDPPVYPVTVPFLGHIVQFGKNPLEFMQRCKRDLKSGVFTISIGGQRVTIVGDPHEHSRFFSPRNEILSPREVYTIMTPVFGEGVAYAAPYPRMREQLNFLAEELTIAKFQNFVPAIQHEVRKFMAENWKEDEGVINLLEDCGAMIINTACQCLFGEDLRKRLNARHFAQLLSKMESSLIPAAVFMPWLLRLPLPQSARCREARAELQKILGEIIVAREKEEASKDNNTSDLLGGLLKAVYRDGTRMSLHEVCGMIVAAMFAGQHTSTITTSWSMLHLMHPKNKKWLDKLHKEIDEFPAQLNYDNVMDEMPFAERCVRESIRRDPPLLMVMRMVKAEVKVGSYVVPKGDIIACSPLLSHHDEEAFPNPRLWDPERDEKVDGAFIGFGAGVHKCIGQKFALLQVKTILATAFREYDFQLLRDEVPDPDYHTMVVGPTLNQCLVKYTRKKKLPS

[8] = tested on: Leishmania donovani; assay: as §2, with “Infected Macrophages.” for “Amastigotes/Macrophages.”, “Percent” for “Average number”, “infected” for “amastigotes per”, “cells” for “cell”; format: functional, organism-based, Homo sapiens; conditions: THP-1
[9] = tested on: Trypanosoma cruzi; assay: GSK_TCAKS: pIC50 Trypanosoma cruzi viability assay using beta-GAL activity. This assay was run at single shot at 5uM compound concentration per well. The biological reagents consisted of NIH-3T3 host cells and trypomastigotes parasitic cells; both cell types were set to a 3.3 * 10^5 cells/mL dilution in assay DMEM by means of a CASY cell counter device using a 60um capillary. 6 uL of the mixture were dispensed per well (about 1 * 10^3 host-cells and 1 * 10^3 parasites) with a Multidrop Combi dispenser. […] In all wells, the percentage of DMSO never exceeded 0.5%. Plates incubated for four days at 37C, 5% CO2. The substrate used for the assay fluorescence intensity (FLINT) readout was resorufin-beta-D-galactopiranoside (Sigma-Aldrich) at 5uM per well. It was diluted in PBS supplemented with the soft detergent Igepal (Fluka).; format: functional, organism-based, Mus musculus; conditions: Tulahuen, NIH3T3
[10] = tested on: Trypanosoma brucei brucei; assay: GSK_TCAKS: pIC50 Trypanosoma brucei viability assay using fluorescence intensity. Assay plates (1536-well) were prepared by dispensing 25nL of compound solution per well using an Echo acoustic dispenser (Labcyte).; format: functional, organism-based; conditions: Lister 427, 2 h
[11] = tested on: Trypanosoma cruzi; assay: as §1, with “Trypanosoma cruzi” for “H2C9”, “Infected Cells.” for “H9c2 Host Cardiomyocytes.”, “percentage” for “Number”, “infected cells per well as a second infection marker.” for “H9c2 Host Cardiomyocytes nuclei to determine drug-related cytotoxicity.”; format: functional, organism-based, Rattus norvegicus; conditions: H9c2, 4 h
[12] = tested on: NIH3T3; assay: GSK_TCAKS: pIC50 NIH 3T3 cell line viability assay using luminiscence. Tissue culture surface treated assay plates (1536-well) were used. […] The 100% cells survival control was determined exposing the host-cells to a 0.5% DMSO concentration, whereas the 100% toxicity control was achieved by seeding the cells in presence of Amphotericin B at 50uM. Plates were incubated for four days at 37C, 5% CO2. The assay readout was developed by addition of 5uL of CellTiter-Glo Reagent following the manufacturer's instructions. Luminiscence was measured using a ViewLux.; format: functional, cell-based; conditions: Mus musculus, NIH3T3, 96 h
[13] = tested on: Leishmania donovani; assay: as §2, with “THP-1 Host Macrophages.” for “Amastigotes/Macrophages.”, “THP-1” for “Average number of amastigotes per macrophage”, “cell count” for “cell”; format: functional, organism-based, Homo sapiens

Row | SMILES | pIC50 [1] | IC50 at 48 h [2] [µM] | pIC50 [3] | pIC50 [4] | pIC50 [5] | pIC50 [6] | pIC50 [7] | pIC50 [8] | pIC50 [9] | pIC50 [10] | pIC50 [11] | pIC50 [12] | pIC50 [13]
1 | CC(C)Oc1cccc(N2CCC(C(=O)N3CCCN(C(C)C)CC3)CC2)c1 | < 4.30 | > 100 | < 4.30 | < 4.30 | 6.60 | < 4.40 | < 4.00 | < 4.30 | 5.90 | < 4.40 | 6.20 | 4.50 | < 4.30
2 | CCN(Cc1ccncc1)Cc1ccc(NC(=O)c2cc(-c3ccc(F)cc3)n[nH]2)cc1 | 4.80 | > 100 | < 4.30 | 5.60 | 6.60 | < 4.40 | 7.10 | < 4.30 | 6.40 | < 4.40 | 6.60 | 5.00 | 5.30
3 | COc1cccc(CCNC(=O)C(c2cn[nH]c2)N2CCN(c3ccc(Cl)cc3)CC2)c1 (stereo not drawn) | 4.90 | 50.1 | 4.40 | 5.00 | 7.80 | 4.50 | 7.20 | 4.70 | 7.70 | 4.70 | 7.70 | 4.50 | 4.60
4 | COc1ccc2nc(N(Cc3cccnc3)C(=O)C3CCC3)sc2c1 | 4.90 | > 100 | < 4.30 | 4.30 | 7.00 | 4.40 | 7.20 | < 4.30 | 6.90 | 4.70 | 6.90 | 4.30 | < 4.30
5 | CC(C)c1cc(C(=O)N2CCCC(c3cc4ncccc4[nH]3)C2)on1 (stereo not drawn) | < 4.30 | > 100 | < 4.30 | < 4.30 | 6.00 | < 4.40 | 4.30 | < 4.30 | 5.70 | < 4.40 | 5.50 | 4.70 | < 4.30
6 | O=C(NCc1nnc2n1CCCCC2)c1ccc(-c2ccc(F)cc2)o1 | < 4.30 | > 100 | < 4.30 | < 4.30 | 6.00 | 6.60 | 4.10 | < 4.30 | 5.85 | 6.90 | 5.80 | < 4.30 | < 4.30
7 | Fc1ccc(O[C@H]2C[C@H](NCc3cccc4cn[nH]c34)C2)cc1C(F)(F)F | 4.70 | 25.1 | 5.10 | 5.10 | 6.80 | 5.00 | 6.90 | 5.10 | 6.10 | 5.10 | 6.70 | 4.90 | 5.00
8 | c1cc(-c2ncc(-c3ccn[nH]3)s2)ccn1 | < 4.30 | > 100 | < 4.30 | 5.00 | 6.60 | < 4.40 | 7.40 | < 4.30 | 6.75 | 4.70 | 6.60 | < 4.30 | < 4.30
9 | CNc1c(C(N)=O)c(-c2ccc3scnc3c2)nn1CC(F)(F)F | < 4.30 | > 100 | < 4.30 | < 4.30 | 6.80 | < 4.40 | < 4.00 | < 4.30 | 6.90 | 4.50 | 6.60 | 4.70 | < 4.30
10 | CNc1cncc(C2CCCN2C(=O)Cc2coc3cc(C)ccc23)n1 (stereo not drawn) | 5.50 | > 100 | < 4.30 | 6.10 | 6.70 | < 4.40 | 7.60 | < 4.30 | 6.80 | < 4.40 | 6.70 | < 4.30 | < 4.30
11 | CNc1cncc(C2CCCN2C(=O)Cc2ccc3ccccc3c2)n1 (stereo not drawn) | < 4.30 | > 100 | < 4.30 | < 4.30 | 6.80 | < 4.40 | 7.00 | < 4.30 | 7.10 | < 4.40 | 6.80 | < 4.30 | < 4.30
12 | O=C(NCCc1n[nH]c(-c2ccc(F)c(F)c2)n1)C1CCCCC1 | < 4.30 | > 100 | < 4.30 | 4.80 | 5.80 | 6.00 | 4.60 | < 4.30 | 5.70 | 6.30 | 5.60 | < 4.30 | 4.70
13 | COc1ccc(CN2CCCCC2c2nc(-c3cccnc3)no2)cc1 (stereo not drawn) | < 4.30 | > 100 | < 4.30 | < 4.30 | 6.20 | < 4.40 | 6.70 | < 4.30 | 6.10 | < 4.40 | 6.10 | < 4.30 | < 4.30
14 | COc1ccc(C(=O)N2CCC(Nc3cccnc3)C2)c(OC)n1 (stereo not drawn) | 4.80 | > 100 | < 4.30 | < 4.30 | 6.10 | < 4.40 | 7.20 | < 4.30 | 6.50 | < 4.40 | 6.10 | < 4.30 | < 4.30
15 | OCCCNc1nc(Nc2ccncc2)nc2ccccc12 | 4.40 | > 100 | < 4.30 | < 4.30 | 6.70 | < 4.40 | < 4.00 | < 4.30 | 6.15 | 4.60 | 5.90 | < 4.30 | < 4.30
16 | Cc1nn(C)c(Cl)c1CN(Cc1cccnc1)Cc1ccsc1 | 5.70 | > 100 | < 4.30 | 5.50 | 6.50 | < 4.40 | 7.20 | < 4.30 | 6.75 | < 4.40 | 6.50 | 4.70 | < 4.30
